The subject of the data set is CCRIS mutagenicity, Ames/micronucleus/aberration tests. Nature of the data set: CCRIS mutagenicity studies.
[1] abbreviates: Test System: AMES SALMONELLA TYPHIMURIUM, Strain/Indicator: TA98, Metabolic Activation: NONE, Method: STANDARD PLATE.
Setting [2] is: Test System: AMES SALMONELLA TYPHIMURIUM, Strain/Indicator: TA100, Metabolic Activation: NONE, Method: STANDARD PLATE.
The mark [3] stands for this setting: Test System: AMES SALMONELLA TYPHIMURIUM, Strain/Indicator: TA1535, Metabolic Activation: NONE, Method: STANDARD PLATE.
[4] abbreviates: Test System: AMES SALMONELLA TYPHIMURIUM, Strain/Indicator: TA1537, Metabolic Activation: NONE, Method: STANDARD PLATE.
The mark [5] stands for this setting: Test System: AMES SALMONELLA TYPHIMURIUM, Strain/Indicator: TA1538, Metabolic Activation: NONE, Method: STANDARD PLATE.
[6] abbreviates: Test System: AMES SALMONELLA TYPHIMURIUM, Strain/Indicator: TA98, Metabolic Activation: NONE, Method: PREINCUBATION
[7] abbreviates: Test System: AMES SALMONELLA TYPHIMURIUM, Strain/Indicator: TA100, Metabolic Activation: NONE, Method: PREINCUBATION

Activity calls are given as the source filed them. The rule behind the calls is not given here.

Take `Nc1ccc(Cl)c(C(F)(F)F)c1`: the mutagenic call is “inactive; negative” under setting [1]; “inactive; negative” (Test System: AMES SALMONELLA TYPHIMURIUM, Strain/Indicator: TA98, Metabolic Activation: RAT, LIVER, S-9, AROCLOR 1254, Method: STANDARD PLATE); “inactive; negative” under setting [2]; “inactive; negative” (Test System: AMES SALMONELLA TYPHIMURIUM, Strain/Indicator: TA100, Metabolic Activation: RAT, LIVER, S-9, AROCLOR 1254, Method: STANDARD PLATE); “inactive; negative” under setting [3]; “inactive; negative” (Test System: AMES SALMONELLA TYPHIMURIUM, Strain/Indicator: TA1535, Metabolic Activation: RAT, LIVER, S-9, AROCLOR 1254, Method: STANDARD PLATE). Besides, the mutagenic call reads like this: under setting [4], “inactive; negative”; (Test System: AMES SALMONELLA TYPHIMURIUM, Strain/Indicator: TA1537, Metabolic Activation: RAT, LIVER, S-9, AROCLOR 1254, Method: STANDARD PLATE) “inactive; negative”; under setting [5], “inactive; negative”; (Test System: AMES SALMONELLA TYPHIMURIUM, Strain/Indicator: TA1538, Metabolic Activation: RAT, LIVER, S-9, AROCLOR 1254, Method: STANDARD PLATE) “inactive; negative”.

`CN(C)N=Nc1ccc(Br)cc1`: the mutagenic call (Test System: AMES SALMONELLA TYPHIMURIUM, Strain/Indicator: TA92, Metabolic Activation: MOUSE, LIVER, S-9, POLYCHLORINATED BIPHENYLS, Method: PREINCUBATION) is “inactive; negative”; the mutagenic call (Test System: AMES SALMONELLA TYPHIMURIUM, Strain/Indicator: TA92, Metabolic Activation: MOUSE, LIVER, S-9, POLYCHLORINATED BIPHENYLS, Method: STANDARD PLATE) is “inactive; negative”; the mutagenic call (Test System: AMES SALMONELLA TYPHIMURIUM, Strain/Indicator: TA92, Metabolic Activation: NONE, Method: STANDARD PLATE) is “inactive; negative”; the mutagenic call (Test System: AMES SALMONELLA TYPHIMURIUM, Strain/Indicator: TA97, Metabolic Activation: MOUSE, LIVER, S-9, POLYCHLORINATED BIPHENYLS, Method: PREINCUBATION) is “inactive; negative”; the mutagenic call (Test System: AMES SALMONELLA TYPHIMURIUM, Strain/Indicator: TA97, Metabolic Activation: MOUSE, LIVER, S-9, POLYCHLORINATED BIPHENYLS, Method: STANDARD PLATE) is “inactive; negative”; the mutagenic call (Test System: AMES SALMONELLA TYPHIMURIUM, Strain/Indicator: TA97, Metabolic Activation: NONE, Method: STANDARD PLATE) is “inactive; negative”. Besides, the mutagenic call runs as follows: (Test System: AMES SALMONELLA TYPHIMURIUM, Strain/Indicator: TA98, Metabolic Activation: MOUSE, LIVER, S-9, POLYCHLORINATED BIPHENYLS, Method: PREINCUBATION) “active; positive”; (Test System: AMES SALMONELLA TYPHIMURIUM, Strain/Indicator: TA98, Metabolic Activation: MOUSE, LIVER, S-9, POLYCHLORINATED BIPHENYLS, Method: STANDARD PLATE) “inactive; negative”; under setting [1], “inactive; negative”; (Test System: AMES SALMONELLA TYPHIMURIUM, Strain/Indicator: TA100, Metabolic Activation: MOUSE, LIVER, S-9, POLYCHLORINATED BIPHENYLS, Method: PREINCUBATION) “inactive; negative”; (Test System: AMES SALMONELLA TYPHIMURIUM, Strain/Indicator: TA100, Metabolic Activation: MOUSE, LIVER, S-9, POLYCHLORINATED BIPHENYLS, Method: STANDARD PLATE) “inactive; negative”; under setting [2], “inactive; negative”. Besides, the mutagenic call was “active; positive” (Test System: AMES SALMONELLA TYPHIMURIUM, Strain/Indicator: TA1535, Metabolic Activation: MOUSE, LIVER, S-9, POLYCHLORINATED BIPHENYLS, Method: PREINCUBATION); “inactive; negative” (Test System: AMES SALMONELLA TYPHIMURIUM, Strain/Indicator: TA1535, Metabolic Activation: MOUSE, LIVER, S-9, POLYCHLORINATED BIPHENYLS, Method: STANDARD PLATE); “inactive; negative” under setting [3]; “active; positive” (Test System: AMES SALMONELLA TYPHIMURIUM, Strain/Indicator: TA1537, Metabolic Activation: MOUSE, LIVER, S-9, POLYCHLORINATED BIPHENYLS, Method: PREINCUBATION); “active; positive” (Test System: AMES SALMONELLA TYPHIMURIUM, Strain/Indicator: TA1537, Metabolic Activation: MOUSE, LIVER, S-9, POLYCHLORINATED BIPHENYLS, Method: STANDARD PLATE); “active; positive” under setting [4]. In addition, the mutagenic call is “inactive; negative” (Test System: AMES SALMONELLA TYPHIMURIUM, Strain/Indicator: TA1538, Metabolic Activation: MOUSE, LIVER, S-9, POLYCHLORINATED BIPHENYLS, Method: PREINCUBATION); “active; positive” (Test System: AMES SALMONELLA TYPHIMURIUM, Strain/Indicator: TA1538, Metabolic Activation: MOUSE, LIVER, S-9, POLYCHLORINATED BIPHENYLS, Method: STANDARD PLATE); “inactive; negative” under setting [5].

As to `CNc1c(C)cc2ncccc2c1N`, the mutagenic call reads like this: under setting [6], “inactive; negative”; (Test System: AMES SALMONELLA TYPHIMURIUM, Strain/Indicator: TA98, Metabolic Activation: RAT, LIVER, S-9, AROCLOR 1254, Method: PREINCUBATION) “inactive; negative”; under setting [7], “inactive; negative”; (Test System: AMES SALMONELLA TYPHIMURIUM, Strain/Indicator: TA100, Metabolic Activation: RAT, LIVER, S-9, AROCLOR 1254, Method: PREINCUBATION) “inactive; negative”.

On to `CS(=O)CCCC/C(=N\OS(=O)(=O)O)S[C@@H]1O[C@H](CO)[C@@H](O)[C@H](O)[C@H]1O` (some centres not stated), for which, for the setting “End Point: IN VITRO MICRONUCLEUS, Test System: HUMAN T-LYMPHOCYTES, Metabolic Activation: NONE”, the mutagenic call was “inactive; negative”.

`Nc1ccc(S(=O)(=O)O)c2ccccc12`: the mutagenic call under setting [6] is “inactive; negative”; the mutagenic call (Test System: AMES SALMONELLA TYPHIMURIUM, Strain/Indicator: TA98, Metabolic Activation: RAT LIVER S-9, PHENOBARBITAL AND BETA-NAPHTHOFLAVONE, Method: PREINCUBATION) is “inactive; negative”; the mutagenic call under setting [7] is “inactive; negative”; the mutagenic call (Test System: AMES SALMONELLA TYPHIMURIUM, Strain/Indicator: TA100, Metabolic Activation: RAT LIVER S-9, PHENOBARBITAL AND BETA-NAPHTHOFLAVONE, Method: PREINCUBATION) is “inactive; negative”; the mutagenic call (Test System: AMES SALMONELLA TYPHIMURIUM, Strain/Indicator: TA1535, Metabolic Activation: NONE, Method: PREINCUBATION) is “inactive; negative”; the mutagenic call (Test System: AMES SALMONELLA TYPHIMURIUM, Strain/Indicator: TA1535, Metabolic Activation: RAT LIVER S-9, PHENOBARBITAL AND BETA-NAPHTHOFLAVONE, Method: PREINCUBATION) was “inactive; negative”. For the same compound, the mutagenic call by setting is: (Test System: AMES SALMONELLA TYPHIMURIUM, Strain/Indicator: TA1537, Metabolic Activation: NONE, Method: PREINCUBATION) “inactive; negative”; (Test System: AMES SALMONELLA TYPHIMURIUM, Strain/Indicator: TA1537, Metabolic Activation: RAT LIVER S-9, PHENOBARBITAL AND BETA-NAPHTHOFLAVONE, Method: PREINCUBATION) “inactive; negative”; (Test System: AMES SALMONELLA TYPHIMURIUM, Strain/Indicator: TA1538, Metabolic Activation: NONE, Method: PREINCUBATION) “inactive; negative”; (Test System: AMES SALMONELLA TYPHIMURIUM, Strain/Indicator: TA1538, Metabolic Activation: RAT LIVER S-9, PHENOBARBITAL AND BETA-NAPHTHOFLAVONE, Method: PREINCUBATION) “inactive; negative”; (Test System: E.COLI, Strain/Indicator: WP2UVRA, Metabolic Activation: NONE, Method: PREINCUBATION) “inactive; negative”; (Test System: E.COLI, Strain/Indicator: WP2UVRA, Metabolic Activation: RAT LIVER S-9, PHENOBARBITAL AND BETA-NAPHTHOFLAVONE, Method: PREINCUBATION) “inactive; negative”.

In the case of `Nc1cc(N)c(N=Nc2ccc(S(=O)(=O)O)cc2S(=O)(=O)O)cc1N=Nc1ccc(-c2ccc(N/N=C3\C=CC(=O)C(C(=O)O)=C3)cc2)cc1`, the mutagenic call (Test System: AMES SALMONELLA TYPHIMURIUM, Strain/Indicator: TA98, Metabolic Activation: HAMSTER, LIVER, S-9, Method: PREINCUBATION (PRIVAL METHOD)) is “active; positive”.

For `CC(=O)ON(OCc1ccccc1)C(=O)c1ccccc1`, the mutagenic call was “active; positive” under setting [1]; “active; positive” under setting [2]; “active; positive” (Test System: AMES SALMONELLA TYPHIMURIUM, Strain/Indicator: TA100, Metabolic Activation: RAT, S-9, AROCLOR, Method: STANDARD PLATE).

(Values after PubChem BioAssay AID1259407 (Chemical Carcinogenesis Research Information System (CCRIS), 2018).)
